Source: patent publication US9624213B2 (Plexxikon Inc., priority 2011, dated 2017)

Tests used:
COLO205 = COLO205 cell growth inhibitory activity (ATPlite); assay type: cell-based; settings: Homo sapiens, COLO 205, 72 h; COLO205 cells, growth inhibition, 3 days
Description: (§1) Compounds are assessed in a variety of cell based assays. For example human cell lines with B-Raf V600E mutation (A375 melanoma, SKMEL3 melanoma, and COLO205 colon adenocarcinoma), as well as tumorigenic cell lines with wild-type B-RAF (SW620 colon adenocarcinoma) or with Ras mutations (SKMEL2 melanoma and IPC298 melanoma). Similar assays may be used to assess additional tumorigenic cell lines with Ras mutations, including, but not limited to, M202, M207, M243, M244, M296, S117, HCT116, HCT15, DLD1, MiaPaCa, A549, NCI-H23, NCI-H460, HOP62, MDA-MB231, Hs-578T, HL60, MOLT-4, and CCRF-CEM.
(§2) On day 1, cells are counted, then centrifuged in a conical tube for 5 minutes at 1000 rpm. The supernatant is removed and cells are re-suspended as follows: • SW620 (ATCC catalog #CCL-27): resuspend in Leibovitz's L-15 medium, 2 mM L-glutamine, 10% fetal bovine serum to 6×10^4 cells/mL. • A375 (ATCC catalog #CRL-1619): resuspend in Dulbecco's modified Eagle's medium, 4 mM L-glutamine, 4.5 g/L D-glucose, 10% fetal bovine serum to 6×10^4 cells/mL. • COLO205 (ATCC catalog #CCL-222): resuspend in RPMI 1640, 2 mM L-glutamine, 1.5 g/L sodium bicarbonate, 4.5 g/L D-glucose, 10 mM HEPES, 1.0 mM sodium pyruvate, 10% fetal bovine serum to 6×10^4 cells/mL. • SKMEL2 (ATCC catalog #HTB-68): resuspend in Minimum Eagle essential medium, 2 mM L-glutamine, 1.5 g/L sodium bicarbonate, 0.1 mM non-essential amino acids, 1.0 mM sodium pyruvate, 10% fetal bovine serum to 6×10^4 cells/mL. • SKMEL3 (ATCC catalog #HTB-69): resuspend in McCoy's 5A medium, 1.5 mM L-glutamine, 15% fetal bovine serum to 6×10^4 cells/mL. • IPC298 (DSMZ catalog #ACC 251): resuspend in RPMI 1640, 2 mM L-glutamine, 10% fetal bovine serum to 6×10^4 cells/mL.
(§3) The cells are plated, 50 μL in each well of a 96-well dish (Corning 3610) and incubated at 37° C. in 5% CO2 overnight, cells plated to a final concentration of cells as follows: • SW620: 5,000 cells per well. • A375: 2,000 cells per well. • COLO205: 2,000 cells per well. • SKMEL2: 2,000 cells per well. • SKMEL3: 3,000 cells per well. • IPC298: 2,000 cells per well.
(§4) On day 2, compound at a maximum concentration of 5 mM is serially diluted 1:3 (e.g. 10 μL with 30 μL dimethyl sulfoxide) for a total of 8 point titration with DMSO as a control. A 1 μL aliquot of each dilution point and control is added to 249 μL growth media and 50 μL is added to a well containing cells, providing 10 μM compound at the maximum concentration point. The cells are incubated for 3 days at 37° C. in 5% CO2.
(§5) On day 5, ATPlite 1 step Luminescence Assay System (Perkin Elmer #6016739) is brought to room temperature along with the cell cultures. ATPlite is added 25 μL to each well, shake for 2 minutes, and the cells are incubated at room temperature for 10 minutes, then luminescence is read on Satire reader. The measured luminescence correlates directly with cell number, such that the reading as a function of compound concentration is used to determine the IC50 value.

A375 = test: A375_P-ERK / A375 cell activity; assay type: cell-based; settings: Homo sapiens, A-375; A375 cells (A375_P-ERK)
Description: as §1, §2, §3, §4, §5

IC50 (COLO205) [µM]	IC50 (A375) [µM]	Structure (SMILES)
> 1		CCOC(=O)C1CCCN1S(=O)(=O)Nc1cccc(C(=O)c2c[nH]c3ncc(-c4cnc(OC)nc4)cc23)c1F (stereo not drawn) [Compound P-0257, ethyl 1-[[2-fluoro-3-[5-(2-methoxypyrimidin-5-yl)-1H-pyrrolo[2,3-b]pyridine-3-carbonyl]phenyl]sulfamoyl]pyrrolidine-2-carboxylate]
< 1	< 1	COC(=O)CCS(=O)(=O)Nc1cccc(C(=O)c2c[nH]c3ncc(-c4cnc(OC)nc4)cc23)c1F [Compound P-0066, methyl 3-[[2-fluoro-3-[5-(2-methoxypyrimidin-5-yl)-1H-pyrrolo[2,3-b]pyridine-3-carbonyl]phenyl]sulfamoyl]propanoate]
< 1	< 1	CCN(C)S(=O)(=O)Nc1cccc(C(=O)c2c[nH]c3ncc(-c4cccnc4)cc23)c1F [Compound P-0032]
< 1	< 1	O=C(c1c(F)ccc(NS(=O)(=O)N2CCC(F)(F)C2)c1F)c1c[nH]c2ncc(-c3cnc(C4CC4)nc3)cc12 [Compound P-0288, N-[3-[5-(2-cyclopropylpyrimidin-5-yl)-1H-pyrrolo[2,3-b]pyridine-3-carbonyl]-2,4-difluoro-phenyl]-3,3-difluoro-pyrrolidine-1-sulfonamide]
< 1	< 1	CCCN(C)S(=O)(=O)Nc1ccc(F)c(C(=O)c2c[nH]c3ncc(-c4ccc(C5(C#N)CC5)cc4)cc23)c1F [Compound P-0079, 5-[4-(1-cyanocyclopropyl)phenyl]-3-[2,6-difluoro-3-[[methyl(propyl)sulfamoyl]amino]benzoyl]-1H-pyrrolo[2,3-b]pyridine]
< 1	< 1	CN(C)c1ncc(-c2cnc3[nH]cc(C(=O)c4c(F)ccc(NS(=O)(=O)N5CCCC5)c4F)c3c2)cn1 [Compound P-0022]
> 1	> 1	CCOc1cnc(-c2cnc3[nH]cc(C(=O)c4c(F)ccc(NS(=O)(=O)N(C)C)c4F)c3c2)cn1 [Compound P-0244, 3-[3-(dimethylsulfamoylamino)-2,6-difluoro-benzoyl]-5-(5-ethoxypyrazin-2-yl)-1H-pyrrolo[2,3-b]pyridine]
< 1	< 1	Cc1ccc(-c2cnc3[nH]cc(C(=O)c4cccc(NS(=O)(=O)N(C)C)c4F)c3c2)cn1 [Compound P-0029]
< 1	< 1	CN(C)S(=O)(=O)Nc1ccc(F)c(C(=O)c2c[nH]c3ncc(-c4ccc(C(C)(C)C#N)cc4)cc23)c1F [Compound P-0255]
> 1	< 1	COc1ncc(-c2cnc3[nH]cc(C(=O)c4cccc(NS(=O)(=O)C5CC5)c4F)c3c2)cn1 [Compound P-0067, N-[2-fluoro-3-[5-(2-methoxypyrimidin-5-yl)-1H-pyrrolo[2,3-b]pyridine-3-carbonyl]phenyl]cyclopropanesulfonamide]
> 1	< 1	CCN(C)S(=O)(=O)Nc1ccc(F)c(C(=O)c2c[nH]c3ncc(-c4ccc(C#N)cc4)cc23)c1F [Compound P-0300, 5-(4-cyanophenyl)-3-[3-[[ethyl(methyl)sulfamoyl]amino]-2,6-difluoro-benzoyl]-1H-pyrrolo[2,3-b]pyridine]
< 1	< 1	CCN(C)S(=O)(=O)Nc1cccc(C(=O)c2c[nH]c3ncc(-c4ccc(C5CC5)nc4)cc23)c1F [Compound P-0087, 5-(6-cyclopropyl-3-pyridyl)-3-[3-[[ethyl(methyl)sulfamoyl]amino]-2-fluoro-benzoyl]-1H-pyrrolo[2,3-b]pyridine]
< 1	< 1	CN(C)S(=O)(=O)Nc1cccc(C(=O)c2c[nH]c3ncc(-c4ccc(C(C)(C)C#N)cc4)cc23)c1F [Compound P-0245, 5-[4-(1-cyano-1-methyl-ethyl)phenyl]-3-[3-(dimethylsulfamoylamino)-2-fluoro-benzoyl]-1H-pyrrolo[2,3-b]pyridine]
< 1	< 1	CCN(C)S(=O)(=O)Nc1cccc(C(=O)c2c[nH]c3ncc(-c4ccc(C5(C#N)CC5)cc4)cc23)c1F [Compound P-0061, 5-[4-(1-cyanocyclopropyl)phenyl]-3-[3-[[ethyl(methyl)sulfamoyl]amino]-2-fluoro-benzoyl]-1H-pyrrolo[2,3-b]pyridine]
< 1	< 1	COc1ncc(-c2cnc3[nH]cc(C(=O)c4cccc(NS(=O)(=O)N(C)CC5CC5)c4F)c3c2)cn1 [Compound P-0083, 3-[3-[[cyclopropylmethyl(methyl)sulfamoyl]amino]-2-fluoro-benzoyl]-5-(2-methoxypyrimidin-5-yl)-1H-pyrrolo[2,3-b]pyridine]
< 1	< 1	CN(C)S(=O)(=O)Nc1cccc(C(=O)c2c[nH]c3ncc(-c4cnc(C#N)nc4)cc23)c1F [Compound P-0096, 5-(2-cyanopyrimidin-5-yl)-3-[3-(dimethylsulfamoylamino)-2-fluoro-benzoyl]-1H-pyrrolo[2,3-b]pyridine]
< 1	< 1	CCN(C)S(=O)(=O)Nc1ccc(F)c(C(=O)c2c[nH]c3ncc(-c4ccc(C(=O)NC5CC5)nc4)cc23)c1F [Compound P-0312, N-cyclopropyl-5-[3-[3-[[ethyl(methyl)sulfamoyl]amino]-2,6-difluoro-benzoyl]-1H-pyrrolo[2,3-b]pyridin-5-yl]pyridine-2-carboxamide]
> 1	> 1	O=C(c1c(F)ccc(NS(=O)(=O)N2CCCC2)c1F)c1c[nH]c2ncc(-c3cc(C(F)(F)F)ncn3)cc12 [Compound P-0294, N-[2,4-difluoro-3-[5-[6-(trifluoromethyl)pyrimidin-4-yl]-1H-pyrrolo[2,3-b]pyridine-3-carbonyl]phenyl]pyrrolidine-1-sulfonamide]
< 1	< 1	CCN(C)S(=O)(=O)Nc1ccc(F)c(C(=O)c2c[nH]c3ncc(-c4cnc(N5CCN(C(=O)OC(C)(C)C)CC5)nc4)cc23)c1F [Compound P-0264, tert-butyl 4-[5-[3-[3-[[ethyl(methyl)sulfamoyl]amino]-2,6-difluoro-benzoyl]-1H-pyrrolo[2,3-b]pyridin-5-yl]pyrimidin-2-yl]piperazine-1-carboxylate]
	> 1	COc1ncc(-c2cnc3[nH]cc(C(=O)c4cccc(NS(=O)(=O)N5CCC(OCc6ccccc6)C5)c4F)c3c2)cn1 (stereo not drawn) [Compound P-0041, 3-benzyloxy-N-[2-fluoro-3-[5-(2-methoxypyrimidin-5-yl)-1H-pyrrolo[2,3-b]pyridine-3-carbonyl]phenyl]pyrrolidine-1-sulfonamide]

Structure (SMILES)	IC50 (COLO205) [µM]	IC50 (A375) [µM]
O=C(c1c(F)ccc(NS(=O)(=O)N2CCCC2)c1F)c1c[nH]c2ncc(-c3ccnc(OC4CCC4)c3)cc12 [Compound P-0286, N-[3-[5-[2-(cyclobutoxy)-4-pyridyl]-1H-pyrrolo[2,3-b]pyridine-3-carbonyl]-2,4-difluoro-phenyl]pyrrolidine-1-sulfonamide]	< 1	> 1
CC1(C)CCN(S(=O)(=O)Nc2cccc(C(=O)c3c[nH]c4ncc(-c5cnc(C6CC6)nc5)cc34)c2F)C1 [Compound P-0246, N-[3-[5-(2-cyclopropylpyrimidin-5-yl)-1H-pyrrolo[2,3-b]pyridine-3-carbonyl]-2-fluoro-phenyl]-3,3-dimethyl-pyrrolidine-1-sulfonamide]		> 1
CCN(C)S(=O)(=O)Nc1cccc(C(=O)c2c[nH]c3ncc(-c4cncc(C#N)c4)cc23)c1F [Compound P-0101, 5-(5-cyano-3-pyridyl)-3-[3-[[ethyl(methyl)sulfamoyl]amino]-2-fluoro-benzoyl]-1H-pyrrolo[2,3-b]pyridine]		< 1
